The target in data set [1] is muscarinic receptor (urinary bladder). The experiment in a line: Muscarinic receptor binding, (−)3H-QNB competition, urinary bladder homogenate. The note with it: guinea pig urinary bladder, 2 nM (−)3H-QNB, 25° C., 60 minutes. The protocol:
(§1) The tissue preparations and the general methods used have been described in detail elsewhere for the parotid gland^1, urinary bladder^2, heart^3 and cerebral cortex^3, respectively. Male guinea pigs (250-400 g body weight) were killed by a blow on the neck and exsanguinated. The brain was placed on ice for dissection of the cerebral cortex (grey matter only). Urinary bladders, hearts and parotid glands were dissected in a Krebs-Henseleit buffer (pH 7.4) containing 1 mM phenyl methyl sulfonyl fluoride (PMSF, a protease inhibitor). Dissected tissues were homogenized in an ice-cold sodium-potassium phosphate buffer (50 mM, pH 7.4) containing 1 mM PMSF, using a Polytron PT-10 instrument (bladder, heart, parotid) and a Potter-Elvehjem Teflon homogenizer (cortex). All homogenates were finally diluted with the ice-cold phosphate/PMSF buffer to a final protein concentration of ≦0.3 mg/ml and immediately used in the receptor binding assays. Protein was determined by the method of Lowry et al. (1951)^4, using bovine serum albumin as the standard.
(§2) The muscarinic receptor affinities of the unlabelled compounds A to D identified above were derived from competition experiments in which the ability to inhibit the receptor specific binding of (−)^3H-QNB (1-quinuclidinyl[phenyl-4-^3H]benzilate, 32.9 Ci/mmole) was monitored as previously described^3,5. Each sample contained 10 μl of (−)^3H-QNB (final concentration 2 nM), 10 μl solution of test compound and 1.0 ml tissue homogenate. Triplicate samples were incubated under conditions of equilibrium, i.e., at 25° C. for 60 minutes (urinary bladder), 80 minutes (heart and cerebral cortex) or 210 minutes (parotid gland), respectively. Non-specific binding was determined in the presence of 10 μM unlabelled atropine. Incubations were terminated by centrifugation^2, and the radioactivity in the pellets was determined by liquid scintillation spectrometry^2.
(§3) IC50-values (concentration of unlabelled compound producing 50% inhibition of the receptor specific (−)^3H-QNB binding) were graphically determined from the experimental concentration-inhibition curves. Affinities, expressed as the dissociation constants Ki, were calculated by correcting the IC50 for the radioligand-induced parallel shift and differences in receptor concentration, using the method of Jacobs et al. (1975)^6. The binding parameters for (−)^3H-QNB (KD and receptor densities) used in these calculations were determined in separate series of experiments^1-3.

A short description of data set [2]: Functional in vivo study in anaesthetized cats: blood pressure, blood flow, heart rate. Particulars: cat. As for the experimental part: (§4) Adult cats were anaesthetized with mebumal (42 mg/kg) intraperitoneally. When the animal was asleep, an infusion cannula was inserted into the foreleg vein and the cat was given alpha-chloralose. During the experiment the animal was placed on an operation table warmed up with a feedback controlled electric pad. The cat was tracheotomized. For blood pressure registration, a polyethylene catheter was inserted into the femoral artery, with the tip in aorta, and connected via a three-way stopcock to a blood pressure transducer and a Grass polygraph. Heart rate was registered by connecting a tachograph to a driver amplifier which received the signal from the blood pressure transducer. Blood flow in the central mesenteric artery was measured by an ultrasound flow probe around the artery connected to a transonic blood flow meter and then to a Grass polygraph for registration of the flow. For infusion of the test substances, compounds D and A (as identified above), a polyethylene catheter was inserted into the femoral vein three-way stopcock to a syringe placed in an infusion pump (Sage instrument).
Through an incision in the proximal urethra, a catheter was inserted into the urinary bladder. At the beginning of each experiment, this catheter was connected to an open vessel, which was filled with 38° C. tempered physiological saline and placed above the animal. During this stabilization period the bladder relaxed, leading to a filling of the bladder with saline, under constant hydrostatic pressure. After the stabilization period, the bladder catheter was connected to a pressure transducer, for registration of intravesical pressure. Blood pressure, heart rate, blood flow and bladder pressure were recorded simultaneously and continuously throughout the experiment. The animals were left for at least 45 minutes to achieve steady state in cardiovascular variables before starting the experiment.
Bladder pressure was measured at 8 minutes after the end of infusion of the test substance. The surgical preparation was tested by intravenous injection of 0.25 μg/kg b.w. of noradrenalin and 0.5 μg/kg b.w. of acetylcholine.
To study the dose-response relationship of compound D identified above, the substance was administered at the doses 0.000 (physiological saline), 0.003, 0.010, 0.030 and 0.100 mg/kg, respectively, with infusion during 2 minutes and an infusion volume of 1 mL/kg. Every cat got all doses and was left to reestablish at least 45 minutes between the 0.003 and 0.010 mg/kg doses, and 60 minutes between the 0.030 and 0.100 mg/kg doses.
(§5) The results are presented in absolute values and calculated as mean value±standard deviation

The target in data set [3] is muscarinic receptor (cerebral cortex). Kind of data set: Muscarinic receptor binding, (−)3H-QNB competition, cerebral cortex homogenate. Particulars: guinea pig cerebral cortex, 2 nM (−)3H-QNB, 25° C., 80 minutes. The protocol:
as §1, §2, §3

The subject of data set [4] is acetylcholine-induced effect on the bladder. Kind of data set: Functional in vivo study in anaesthetized cats: bladder pressure. Particulars: cat, intravenous infusion. As for the experimental part: as §4, with “For infusion of the test substances, compounds D and A (as identified above), a polyethylene catheter was inserted into the femoral vein three-way stopcock to a syringe placed in an infusion pump (Sage instrument).” left out
Through an incision in the proximal urethra, a catheter was inserted into the urinary bladder. […] Blood pressure, heart rate, blood flow and bladder pressure were recorded simultaneously and continuously throughout the experiment. […]
Bladder pressure was measured at 8 minutes after the end of infusion of the test substance. […]
as §5

The target in data set [5] is Smooth muscle strips of the urinary bladder (carbachol contraction). Kind of data set: Functional in vitro study: antagonism of carbachol-induced contraction of urinary bladder smooth muscle strips. Particulars: guinea pig urinary bladder strips, carbachol agonist, 60 min incubation with antagonist; read-out: KH bladder. As for the experimental part:
Male guinea pigs, weighing about 300 g, were killed by a blow on the neck and exsanguinated. Smooth muscle strips of the urinary bladder were dissected in a Krebs-Henseleit solution (pH 7.4). The strip preparations were vertically mounted between two hooks in thermostatically controlled (37° C.) organ baths (5 ml). One of the hooks was adjustable and connected to a force transducer (FT 03, Grass Instruments). The Krebs-Henseleit solution was continuously bubbled with carbogen gas (93.5% O2/6.5% CO2) to maintain the pH at 7.4. Isometric tension was recorded by a Grass Polygraph (Model 79D). A resting tension of approximately 5 mN was initially applied on each muscle strip and the preparations were allowed to stabilize for at least 45 min. The resting tension was repeatedly adjusted and the preparations were washed several times during the stabilization period.
Carbachol (carbamylcholine chloride) was used as the standard agonist. In each experiment, the viability of the preparations and the reproducibility of their contractile responses were initially tested by three consecutive additions of a submaximal concentration (3×10^−6M) of carbachol. A complete concentration-response curve to carbachol was then generated by cumulative addition of carbachol to the organ-bath (i.e., stepwise increase of the agonist concentration until the maximal contractile response was reached), followed by washing out and a resting period of at least 15 min. before a fix concentration of the test compound (antagonist) was added to the organ-bath. After 60 min. of incubation with the antagonist, a second cumulative concentration-response curve to carbachol was generated. Responses were expressed as per cent of the maximal response to carbachol. EC50-values for carbachol in the absence (control) and presence of antagonist were graphically derived and dose ratios (r) were calculated. Dissociation constants, KB, for the antagonists were calculated using equation (1)^7, where [A] is the concentration of test compound. KB=[A]/r−1 (1)

[6] abbreviates: intravenous, highest dose (0.3 mg/kg).

Counter-ions that a name gives are not always drawn.

Regarding `CC(C)N(CCC(c1ccccc1)c1cc(CO)ccc1O)C(C)C` (stereo not drawn) [(D), (+)-N,N-diisopropyl-3-(2-hydroxy-5-hydroxymethylphenyl)-3-phenylpropylamine(+)mandelic acid salt], the Ki in data set [1] is 4.5 nM; in data set [3], 0.7 nM. The “increase of diastolic blood pressure” value in data set [2] (intravenous, 0,3 mg/kg) is 10%. Moreover, in data set [2] (intravenous, 0,3 mg/kg), the “increase of systolic blood pressure” value was 6%. Also, the “increase of the blood flow in superior mesenterica artery” value is listed as 8% in data set [2] (intravenous, 0.003 mg/kg); 17% in data set [2] (intravenous, 0.01 mg/kg); 21% in data set [2] (intravenous, 0.03 mg/kg). The “effect on the blood pressure” value in data set [2] (intravenous, doses other than 0,3 mg/kg) is listed as “little or no effect”. For the same compound, the “decrease of heart rate” value in data set [2] (setting [6]) is 9%. The “increase in blood flow” value in data set [2] (setting [6]) came to 10%. The “inhibition of the acetylcholine-induced effect on the bladder (bladder pressure)” value in data set [4] (bladder pressure 8 minutes after end of infusion) is reported as “dose-dependent inhibition”. Further, the “efficiency of bladder pressure inhibition relative to prior art compound A” value in data set [4] (versus compound A) is reported as “about ten times more efficient”. The Kd in data set [5] was determined as 4.1 nM.
For `Cc1ccc(O)c(C(CCN(C(C)C)C(C)C)c2ccccc2)c1` (single isomer, unassigned; (+)) [(A), (+)N,N-diisopropyl-3-(2-hydroxy-5-methylphenyl)-3-phenylpropylamine, hydrochloride], the results for the Ki in data set [1] and in data set [3] were 2.7 nM and 0.8 nM, respectively. The Kd in data set [5] amounted to 3 nM.
For `CC(C)N(CCC(c1ccccc1O)c1ccccc1O)C(C)C` [(B), N,N-diisopropyl-3-bis-(2-hydroxyphenyl)propylamine hydrochloride], the Ki in data set [1] came to 10.2 nM; in data set [3], 1.5 nM.
For `CC(C)N(CCC(c1ccccc1O)c1cc(Cl)ccc1O)C(C)C` (single isomer, unassigned; (+)) [(C), (+)N,N-diisopropyl-3-(5-chloro-2-hydroxyphenyl)-3-(2-hydroxyphenylpropylamine, hydrochloride], the Ki in data set [1] worked out at 2.5 nM; in data set [3], 0.4 nM. The Kd in data set [5] amounted to 2.6 nM.

As a reminder, the Ki is the dissociation constant of the complex between target and ligand, obtained from inhibition or displacement. Higher therefore signals lower affinity.

(Values after patent publication USRE40851E1, “3,3-diphenylpropylamines, their use and preparation” (Pfizer Health AB, priority 1992, dated 2009).)
